According to PMC8338929, “Acetylation turns leucine into a drug by membrane transporter switching” (Scientific Reports, 2021):

Biological target: T1, Human OAT1 (SLC22A6) (Homo sapiens, UniProt Q4U2R8)
T1 construct: host or cells: HEK-293
T1 sequence (Q4U2R8 1-563): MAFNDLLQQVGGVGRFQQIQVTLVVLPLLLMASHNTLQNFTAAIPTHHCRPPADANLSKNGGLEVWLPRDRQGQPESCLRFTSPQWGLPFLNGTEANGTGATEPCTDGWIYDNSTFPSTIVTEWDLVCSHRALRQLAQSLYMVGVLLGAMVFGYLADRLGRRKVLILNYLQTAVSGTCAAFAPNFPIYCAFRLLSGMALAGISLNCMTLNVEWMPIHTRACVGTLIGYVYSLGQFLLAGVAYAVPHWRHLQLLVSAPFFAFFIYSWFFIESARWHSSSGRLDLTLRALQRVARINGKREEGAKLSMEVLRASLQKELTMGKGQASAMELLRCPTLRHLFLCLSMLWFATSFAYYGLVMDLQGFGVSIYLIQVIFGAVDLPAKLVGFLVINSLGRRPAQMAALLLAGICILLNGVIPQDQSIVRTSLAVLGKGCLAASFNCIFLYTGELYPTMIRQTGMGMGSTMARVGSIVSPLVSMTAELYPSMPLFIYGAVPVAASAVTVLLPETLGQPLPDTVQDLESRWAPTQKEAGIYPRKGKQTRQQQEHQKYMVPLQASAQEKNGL
Assay: Inhibition of OAT1 uptake of probe substrate chlorothiazide in HEK-293 cells
Type: cell-based
Settings: probe chlorothiazide 3 µM; positive control diclofenac 100 µM
Protocol: Cells were grown in DMEM (Gibco 4196, high glucose, without sodium pyruvate) supplemented with MEM non-essential amino acids and 10% fetal bovine serum. Cells were re-fed with fresh medium after attachment (4–6 h post-seeding). Cell were plated at a density of 4 × 10^5/well in 24-well plates coated with poly-D-lysine. Transporter assays were conducted in 400 µL of HBSS supplemented with 10 mM Hepes, pH 7.4
The known probe substrates used as positive controls were 3 μM chlorothiazide for OAT1, 2 μM estrone-3-sulfate for OAT3, 10 µM [^3H]gabapentin for LAT1, 50 µM [^3H]Gly-Sar for PepT1, 500 µM thiophene-2-glyoxylic acid for MCT1. The known inhibitors used as controls for each transporter were 100 μM diclofenac for OAT1 and OAT3, 10 µM JPH203 for LAT1 and 200 µM losartan for PepT1. All incubations were in triplicate and contained 1% (OAT1 and OAT3) or 0.5% DMSO (LAT, PepT1 and MCT1). […]
[I] is the inhibitor concentration and IC50 is the inhibitor concentration where the remaining activity is at the midpoint between the Top and Bottom. […] In inhibition experiments, the IC50 is not equivalent to affinity because it is dependent on the concentrations of the substrate, the inhibitor and affinity; therefore, we assumed competitive inhibition, and calculated affinity of inhibition (Ki) with the Cheng-Prusoff equation[49].

IC50: 6.2 mM
SMILES: CC(=O)N[C@@H](CC(C)C)C(=O)O [N-acetyl-L-leucine]
